The subject of the first assay is NL-RLuc virus (recombinant NL4-3 proviral clone with Renilla Luciferase gene). Put plainly: Inhibition of HIV replication (NL-RLuc reporter virus in MT-2 cells). It is filed as cell-based. The settings on record: Renilla, NL43, 120 h, read-out: Activity. The source says:
Inhibition of HIV replication: A recombinant NL-RLuc proviral clone was constructed in which a section of the nef gene from NL4-3 was replaced with the Renilla Luciferase gene. This virus is fully infectious and can undergo multiple cycles of replication in cell culture. In addition, the luciferous reporter provides a simple and easy method for quantitating the extent of virus growth and consequently, the antiviral activity of test compounds. The plasmid pNLRLuc contains the proviral NL-Rluc DNA cloned into pUC18 at the PvuII site. The NL-RLuc virus was prepared by transfection of 293T cells with the plasmid pNLRLuc. Transfections were performed using the LipofectAMINE PLUS kit from Invitrogen (Carlsbad, Calif.) according to the manufacturer and the virus generated was titered in MT-2 cells. For susceptibility analyses, the titrated virus was used to infect MT-2 cells in the presence of compound, and after 5 days of incubation, cells were processed and quantitated for virus growth by the amount of expressed luciferase. Assay media was RPMI 1640 supplemented with 10% heat inactivated fetal bovine serum (FBS), 100 units/ml penicillin G/100 units/ml streptomycin, 10 mM HEPES buffer pH 7.55 and 2 mM L-glutamine. The results from at least 2 experiments were used to calculate the EC50 values. Luciferase was quantitated using the Dual Luciferase kit from Promega (Madison, Wis.). Susceptibility of viruses to compounds was determined by incubation in the presence of serial dilutions of the compound. The 50% effective concentration (EC50) was calculated by using the exponential form of the median effect equation where (Fa)=1/[1+(ED50/drug conc.)^m] (Johnson V A, Byington R T. Infectivity Assay. In Techniques in HIV Research. ed. Aldovini A, Walker B D. 71-76. New York: Stockton Press.1990). Activity equal to A refers to a compound having an EC50≤100 nM, while B and C denote compounds having an EC50 between 100 nM and 1 uM (B) or >1 uM (C).
As to `Cc1nc(C)c([C@H](OC(C)(C)C)C(=O)O)c(N2CCC(C)(C)CC2)c1-c1ccc(-c2nnn[nH]2)cc1` [Example 46, (S)-2-(5-(4-(1H-Tetrazol-5-yl)phenyl)-4-(4,4-dimethylpiperidin-1-yl)-2,6-dimethylpyridin-3-yl)-2-(tert-butoxy)acetic acid], the EC50 was more than 1 µM. For the molecule `Cc1nc(C)c([C@H](OC(C)(C)C)C(=O)O)c(N2CCC(C)(C)CC2)c1-c1cccc(-c2nnn[nH]2)c1` [Example 47, (S)-2-(5-(3-(1H-Tetrazol-5-yl)phenyl)-4-(4,4-dimethylpiperidin-1-yl)-2,6-dimethylpyridin-3-yl)-2-(tert-butoxy)acetic acid], the EC50 is more than 1 µM. Same read-out and setting: the figure for `Cc1nc(C)c([C@H](OC(C)(C)C)C(=O)O)c(N2CCC(C)(C)CC2)c1-c1ccc(CC#N)cc1` [Example 48, (S)-2-(tert-Butoxy)-2-(5-(4-(cyanomethyl)phenyl)-4-(4,4-dimethylpiperidin-1-yl)-2,6-dimethylpyridin-3-yl)acetic acid] is 0.1 to 1 µM; for `Cc1nc(C)c([C@H](OC(C)(C)C)C(=O)O)c(N2CCC(C)(C)CC2)c1-c1ccc(/C=C/C#N)cc1` [Example 49, (S,E)-2-(tert-Butoxy)-2-(5-(4-(2-cyanovinyl)phenyl)-4-(4,4-dimethylpiperidin-1-yl)-2,6-dimethylpyridin-3-yl)acetic acid] it is 0.1 to 1 µM. Same read-out and setting: to `Cc1nc(C)c([C@H](OC(C)(C)C)C(=O)O)c(N2CCC(C)(C)CC2)c1-c1ccc(C(=O)CCc2ccc(F)cc2)cc1` [Example 50, (S)-2-(tert-Butoxy)-2-(4-(4,4-dimethylpiperidin-1-yl)-5-(4-(3-(4-fluorophenyl)propanoyl)phenyl)-2,6-dimethylpyridin-3-yl)acetic acid] belongs less than 0.1 µM. Regarding `Cc1nc(C)c([C@H](OC(C)(C)C)C(=O)O)c(N2CCC(C)(C)CC2)c1-c1ccc(C(O)CCc2ccc(F)cc2)cc1` (stereo partly drawn) [Example 51, (2S)-2-(tert-Butoxy)-2-(4-(4,4-dimethylpiperidin-1-yl)-5-(4-(3-(4-fluorophenyl)-1-hydroxypropyl)phenyl)-2,6-dimethylpyridin-3-yl)acetic acid], the EC50 is less than 0.1 µM. For `Cc1nc(C)c([C@H](OC(C)(C)C)C(=O)O)c(N2CCC(C)(C)CC2)c1-c1ccc(CCCc2ccc(F)cc2)cc1` [Example 52, (S)-2-(tert-Butoxy)-2-(4-(4,4-dimethylpiperidin-1-yl)-5-(4-(3-(4-fluorophenyl)propyl)phenyl)-2,6-dimethylpyridin-3-yl)acetic acid], the EC50 was less than 0.1 µM. Same read-out and setting: to `Cc1nc(C)c([C@H](OC(C)(C)C)C(=O)O)c(N2CC(C)CC(C)C2)c1-c1ccc(C(=O)NCc2ccccc2)cc1` (stereo partly shown) [Example 53] belongs 0.1 to 1 µM; to `Cc1nc(C)c([C@H](OC(C)(C)C)C(=O)O)c(N2CCC(C(F)(F)F)CC2)c1-c1ccc(C(=O)NCc2ccccc2)cc1` [Example 54, (S)-2-(5-(4-(Benzylcarbamoyl)phenyl)-2,6-dimethyl-4-(4-(trifluoromethyl)piperidin-1-yl)pyridin-3-yl)-2-(tert-butoxy)acetic acid], less than 0.1 µM. For `Cc1nc(C)c([C@H](OC(C)(C)C)C(=O)O)c(N2CCC(C3CC3)C2)c1-c1ccc(C(=O)NCc2ccccc2)cc1` (stereo partly drawn) [Example 55, (2S)-2-(5-(4-(Benzylcarbamoyl)phenyl)-4-(3-cyclopropylpyrrolidin-1-yl)-2,6-dimethylpyridin-3-yl)-2-(tert-butoxy)acetic acid], the EC50 was less than 0.1 µM. Still for that read-out and setting: the figure for `CCC1(C)CCN(c2c(-c3ccc(C(=O)NCc4ccccc4)cc3)c(C)nc(C)c2[C@H](OC(C)(C)C)C(=O)O)CC1` [Example 56, (S)-2-(5-(4-(Benzylcarbamoyl)phenyl)-4-(4-ethyl-4-methylpiperidin-1-yl)-2,6-dimethylpyridin-3-yl)-2-(tert-butoxy)acetic acid] is less than 0.1 µM.

Still in this assay, the particulars now being: Renilla, NL43, 120 h, read-out: EC50 μM.
`Cc1nc(C)c([C@H](OC(C)(C)C)C(=O)O)c(N2CCC(C)(C)CC2)c1-c1ccc(CC#N)cc1` [Example 48, (S)-2-(tert-Butoxy)-2-(5-(4-(cyanomethyl)phenyl)-4-(4,4-dimethylpiperidin-1-yl)-2,6-dimethylpyridin-3-yl)acetic acid]: the EC50 was 0.109 µM. On the same count and under the same terms, the figure for `Cc1nc(C)c([C@H](OC(C)(C)C)C(=O)O)c(N2CCC(C3CC3)C2)c1-c1ccc(C(=O)NCc2ccccc2)cc1` (stereo partly drawn) [Example 55, (2S)-2-(5-(4-(Benzylcarbamoyl)phenyl)-4-(3-cyclopropylpyrrolidin-1-yl)-2,6-dimethylpyridin-3-yl)-2-(tert-butoxy)acetic acid] is 0.053 µM.

The values are drawn from patent publication US20180170904A1, “PYRIDIN-3-YL ACETIC ACID DERIVATIVES AS INHIBITORS OF HUMAN IMMUNODEFICIENCY VIRUS REPLICATION” (priority 2015, published 2018).
